# Patent EP0871441B1, “DFMO AND TAXOL FOR THE TREATMENT OR PREVENTION OF BREAST CANCER” (Ilex Oncology, Inc., priority 1996, dated 1998)
# Where “and” joins values, the source holds several entries; their conditions need not be identical. Equal values may be shown once.
# What was measured:
# [1] = system: MDA-MB-231 human breast tumor; assay: Tumor growth inhibition of MDA-MB-231 breast tumor implanted s.c. in nude mice; assay type: in vivo; conditions: for % Tumor Growth Inhibition: with respect to control
# Experimental: The MDA-MB-23 1 human breast tumor cell line is estrogen independent. The cell line cannot be maintained in vitro and so was maintained in vivo in host nude mice. The tumor growth inhibition studies were conducted by transplanting MDA-MB-231 tumor cells from the host nude mouse to the subject and control nude mice of the study. The MDA-MB-231 cell line can be obtained from the American Type Culture Collection as ATCC HTB 26. Nude mice are implanted s.c. by trocar with fragments of MDA-MB-231 human breast tumor cells harvested from s.c. growing tumors in nude mice hosts. When tumors are approximately 5 mm x 5 mm in size (usually about ten to twenty days after inoculation), the animals are pair-matched into treatment and control groups. Each group contains 10 tumored mice, each of which is ear-tagged and followed individually throughout the experiment. The administration of drugs or vehicle begins the day the animals are pair-matched (Day 1). The doses, route of drug administration and schedule are selected as appropriate for the study in question. If the MTD dose of an agent is not known, it is determined in an initial dosing experiment in non-tumored mice. The experiment is usually terminated when control tumors reach a size of 1 g or 2 g for the tumor models. Mice are weighed twice weekly, and tumor measurements are taken by calipers twice weekly, starting on day 1. These tumor measurements are converted to mg tumor weight by a well-known formula, and from these calculated tumor weights, the termination date can be determined. Upon termination, all mice are weighed, sacrificed, and their tumors excised. Tumors are weighed, and the mean tumor weight per group is calculated. In this model, the mean treated tumor weight/mean control tumor weight x 100% (T/C) is subtracted from 100% to give the tumor growth inhibition (TGI) for each group. The final weight of a given tumor is subtracted from its own weight at the start of treatment on day 1. This difference divided by the initial tumor weight is the % shrinkage. A mean % tumor shrinkage can be calculated from data from the mice in a group that experienced regressions. If the tumor completely disappears in a mouse, this is considered a complete regression or complete tumor shrinkage. If desired, mice with partial or total tumor regressions can be kept alive past the termination date to see whether they live to become long term, tumor-free survivors. Statistics are performed on the data using primarily the log rank-value test. In the above procedure, a reduction in the growth, number, size, metastasis and/or reoccurrence of tumor in the animal is deemed a positive response.
# [2] = system: MCF-7 human breast tumor; assay: Tumor growth inhibition of MCF-7 mammary carcinoma implanted s.c. in ovariectomized nude mice; assay type: in vivo
# Experimental: Female ovariectomized nude mice are implanted s.c. by trocar with 21 day release 0.25 mg estrogen pellets. The following day the mice are implanted s.c. by trocar fragments of MCF-7 mammary carcinomas harvested from s.c. growing MCF-7 tumors in nude mice hosts. When tumors are approximately 5 mm x 5 mm in size (about twenty days after inoculation), the animals are pair-matched into treatment and control groups, and the estrogen pellets removed. Each group contains 10 tumored mice, each of which is ear-tagged and followed individually throughout the experiment. The administration of drugs or vehicle begins the day the animals are pair-matched (Day 1). The doses, route of drug administration and schedule are selected as appropriate for the study in question. If the MTD dose of an agent is not known, it is determined in an initial dosing experiment in non-tumored mice. Mice are weighed twice weekly, and tumor measurements are taken by calipers twice weekly, starting on Day 1. These tumor measurements are converted to mg tumor weight by a well-known formula, L^2xW/2. The experiment is terminated when control tumors reach a size of 1 gram. […] Tumors are weighed and the mean tumor weight per group is calculated. […] A mean % tumor shrinkage can be calculated from data from the mice in a group that experienced tumor regressions. […]
# [3] = system: MCF-7 cells; conditions: cited from earlier work
# [4] = system: MCF-7; conditions: MCF-7, estrogen-responsive; cited from earlier work
# [5] = system: T-47D; conditions: estrogen-responsive; cited from earlier work
# [6] = system: BT-20; conditions: BT-20, estrogen-unresponsive; cited from earlier work
# [7] = target: T1, ODC (Homo sapiens, UniProt P11926); conditions: DFMO 5 mM, MCF-7 cells; cited from earlier work
# T1 construct: endogenous in cells; host or cells: MCF-7 cells, estrogen-treated
# T1 sequence (P11926 1-461): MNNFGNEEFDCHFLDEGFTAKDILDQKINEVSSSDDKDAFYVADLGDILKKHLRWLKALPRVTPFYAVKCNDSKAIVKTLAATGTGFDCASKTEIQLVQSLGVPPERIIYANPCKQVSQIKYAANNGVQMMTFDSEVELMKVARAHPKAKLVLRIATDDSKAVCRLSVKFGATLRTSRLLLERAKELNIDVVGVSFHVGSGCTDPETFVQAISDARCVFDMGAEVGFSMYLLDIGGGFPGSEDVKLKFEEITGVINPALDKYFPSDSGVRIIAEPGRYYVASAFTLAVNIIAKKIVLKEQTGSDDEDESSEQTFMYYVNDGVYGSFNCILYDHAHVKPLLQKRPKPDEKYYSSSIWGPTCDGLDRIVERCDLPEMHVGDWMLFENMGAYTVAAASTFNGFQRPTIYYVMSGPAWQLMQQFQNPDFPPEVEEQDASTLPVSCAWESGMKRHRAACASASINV
# [8] = DFMO alone 0.5% in drinking water, p.o., ad libitum
# [9] = DFMO alone 3% in drinking water, p.o., ad libitum
# [10] = taxol alone 20 mg/kg, i.p., qdx5
compound,measurement,setting,value
"NCCC[C@](N)(C(=O)O)C(F)F (racemic) [DFMO, alpha-difluoromethylornithine]",Final Tumor Wt. (Mean±SEM),[1]; [8],1276.3±398.6
same,% Tumor Growth Inhibition,[1]; [8],19% and 19.2%
same,Final Tumor Wt. (Mean±SEM),[1]; [9],782.7±111.4
same,% Tumor Growth Inhibition,[1]; [9],52% and 51.8%
same,tumor growth inhibition (TGI) with respect to control,"[2]; DFMO alone 0.5% wt in drinking water, p.o., ad libitum",44%
same,"proliferation of MCF-7 cells, % of the controls","[3]; 0.1 mM DFMO, remaining proliferation",75%
same,inhibition of proliferation,[4],80%
same,inhibition of proliferation,[5],80%
same,inhibition of proliferation,[6],50%
same,ODC activity,[7],fully inhibited
4-hydroxytamoxifen,cell growth reduced to,"[3]; 0.1µM 4-hydroxytamoxifen, remaining growth",72%
CC(=O)O[C@H]1C(=O)[C@@]2(C)[C@H]([C@H](OC(=O)c3ccccc3)[C@]3(O)C[C@H](OC(=O)[C@H](O)[C@@H](NC(=O)c4ccccc4)c4ccccc4)C(C)=C1C3(C)C)[C@]1(OC(C)=O)CO[C@@H]1C[C@@H]2O [Taxol],Final Tumor Wt. (Mean±SEM),[1]; [10],301.6±72.9
same,% Tumor Growth Inhibition,[1]; [10],83.7%
same,% Tumor Growth Inhibition,"[1]; taxol alone 20 mg/kg, i.p., qdx5, listed as taxol",84%
same,tumor growth inhibition (TGI) with respect to control,"[2]; taxol alone 16 mg/kg, i.p., qdx5",28%
